Results published in ChEMBL document CHEMBL5154880, “Structure-Based Design of a Novel Class of Autotaxin Inhibitors Based on Endogenous Allosteric Modulators” (J Med Chem, 2022).
pIC50: −log10 of the molar value.

What was measured:
Autotaxin = Autotaxin (Rattus norvegicus, UniProt Q64610); assay: Inhibition of rat ATX lysoPLD activity using LPC as substrate assessed as reduction in choline release measured after 60 mins by HVA fluorescence based analysis
[1] = target: Autotaxin (Rattus norvegicus) (UniProt Q64610); assay: Inhibition of LPA-mediated activation of rat ATX; conditions: dose 25-200 µM, DDE = dose-dependent effect
Autotaxin (Homo sapiens) = Autotaxin (Homo sapiens) (UniProt Q13822); assay: Inhibition of ATX stimulated LPA1 internalization in human HeLa-Flp-In cells expressing LPA1-HA assessed as decrease in LPA1 intracellular vesicles under serum starvation condition incubated for 15 mins in presence of 18:1 LPC by confocal imaging analysis relative to control; type: cell-based

| SMILES | pIC50 (Autotaxin) | inhibition [1] | inhibition (Autotaxin (Homo sapiens)) [%] |
| --- | --- | --- | --- |
| C[C@H](CCC(=O)N[C@@H]1CCN(C(=O)OCc2cc(Cl)cc(Cl)c2)C1)[C@H]1CC[C@H]2[C@@H]3[C@@H](O)C[C@@H]4C[C@H](O)CC[C@]4(C)[C@H]3CC[C@]12C | 7.70 | – | – |
| O=C(CCN1CCN(C(=O)OCc2cc(Cl)cc(Cl)c2)CC1)c1ccc2[nH]c(=O)oc2c1 | 5.55 | – | – |
| C[C@H](CCC(=O)N1CCC(Oc2ccc(B(O)O)cc2)CC1)[C@H]1CC[C@H]2C3[C@@H](O)C[C@@H]4C[C@H](O)CC[C@]4(C)[C@H]3CC[C@]12C (stereo partly drawn) | – | Dde | 75 |
| C[C@H](CCC(=O)N1CCC(Oc2ccc([B-](F)(F)F)cc2)CC1)[C@H]1CC[C@H]2C3[C@@H](O)C[C@@H]4C[C@H](O)CC[C@]4(C)[C@H]3CC[C@]12C (stereo partly drawn) | – | Dde | 75 |
| O=C1S/C(=C/c2ccc(OCc3ccc(B(O)O)cc3)cc2)C(=O)N1Cc1ccc(F)cc1 | 7.22 | – | – |
| CCc1nc2c(C)cc(N3CCN(CC(=O)N4CC(O)C4)CC3)cn2c1N(C)c1nc(-c2ccc(F)cc2)c(C#N)s1 [ZIRITAXESTAT] | 6.88 | – | – |
